Experimental data reported in ChEMBL document CHEMBL5321283, “Structure-Activity Relationships of the Antimicrobial Peptide Natural Product Apidaecin” (J Med Chem, 2023).
Values after ≈ are worked out from the molar mass of the structure shown. Where a SMILES comes first, the peptide text is derived from it. [ ]: non-standard residue; d: D form. The star is where a group is joined. Orn(α-tetramethylguanidino) = CN(C)C(=N[C@@H](CCCN)C(=O)*)N(C)C; Phe(4-F) = N[C@@H](Cc1ccc(F)cc1)C(=O)O; hArg = N=C(N)NCCCC[C@H](N)C(=O)O; Cha = N[C@@H](CC1CCCCC1)C(=O)O; Leu(ol) = CC(C)C[C@H](N)CO; NHIsopentyl = CC(C)CCN*

Columns and labels:
Escherichia coli [1] = assay: Potency index, ratio of Api-137 MIC to test compound MIC for antibacterial activity against Escherichia coli BL21 assessed as bacterial growth inhibition by broth microdilution assay; assay type: functional
Escherichia coli [2] = assay: Antibacterial activity against Escherichia coli BL21 assessed as bacterial growth inhibition by broth microdilution assay; assay type: functional

With `CC[C@H](C)[C@H](NC(=O)[C@H](Cc1ccc(O)cc1)NC(=O)[C@@H](NC(=O)[C@@H]1CCCN1C(=O)[C@H](CCCNC(=N)N)NC(=O)[C@H](CC(N)=O)NC(=O)[C@H](CC(N)=O)NC(=O)[C@H](CCCN)N=C(N(C)C)N(C)C)C(C)C)C(=O)N1CCC[C@H]1C(=O)N[C@@H](CCCNC(=N)N)C(=O)N1CCC[C@H]1C(=O)N[C@@H](CCCNC(=N)N)C(=O)N1CCC[C@H]1C(=O)N1CCC[C@H]1C(=O)N[C@@H](Cc1c[nH]cn1)C(=O)N1CCC[C@H]1C(=O)N[C@@H](CCCNC(=N)N)C(=O)N[C@H](CO)CC(C)C` ({Orn(α-tetramethylguanidino)}-NNRPVYIPRPRPPHPR[Leu(ol)]) the Ratio (Escherichia coli [1]) was 32 and the MIC (Escherichia coli [2]) was 5 µM (≈ 11.4 µg/mL).
With `CC[C@H](C)[C@H](NC(=O)[C@H](Cc1ccc(O)cc1)NC(=O)[C@@H](NC(=O)[C@@H]1CCCN1C(=O)[C@H](CCCNC(=N)N)NC(=O)[C@H](CC(N)=O)NC(=O)[C@H](CC(N)=O)NC(=O)[C@H](CCCN)N=C(N(C)C)N(C)C)C(C)C)C(=O)N1CCC[C@H]1C(=O)N[C@@H](CCCNC(=N)N)C(=O)N1CCC[C@H]1C(=O)N[C@@H](CCCNC(=N)N)C(=O)N1CCC[C@H]1C(=O)N1CCC[C@H]1C(=O)N[C@@H](CC1CCCCC1)C(=O)N1CCC[C@H]1C(=O)N[C@@H](CCCNC(=N)N)C(=O)N[C@@H](CC(C)C)C(=O)O` ({Orn(α-tetramethylguanidino)}-NNRPVYIPRPRPP[Cha]PRL-OH) the Ratio (Escherichia coli [1]) was 32 and the MIC (Escherichia coli [2]) was 5 µM (≈ 11.5 µg/mL).
For `CC[C@H](C)[C@H](NC(=O)[C@H](Cc1ccc(O)cc1)NC(=O)[C@@H](NC(=O)[C@@H]1CCCN1C(=O)[C@H](CCCNC(=N)N)NC(=O)[C@H](CC(N)=O)NC(=O)[C@H](CC(N)=O)NC(=O)[C@H](CCCN)N=C(N(C)C)N(C)C)C(C)C)C(=O)N1CCC[C@H]1C(=O)N[C@@H](CCCNC(=N)N)C(=O)N1CCC[C@H]1C(=O)N[C@@H](CCCNC(=N)N)C(=O)N1CCC[C@H]1C(=O)N1CCC[C@H]1C(=O)N[C@@H](Cc1c[nH]cn1)C(=O)N1CCC[C@H]1C(=O)N[C@@H](CCCCNC(=N)N)C(=O)N[C@@H](CC(C)C)C(=O)O` ({Orn(α-tetramethylguanidino)}-NNRPVYIPRPRPPHP[hArg]L-OH), the Ratio (Escherichia coli [1]) was 16 and the MIC (Escherichia coli [2]) was 2.5 µM (≈ 5.76 µg/mL).
`CC[C@H](C)[C@H](NC(=O)[C@H](Cc1ccc(F)cc1)NC(=O)[C@@H](NC(=O)[C@@H]1CCCN1C(=O)[C@H](CCCNC(=N)N)NC(=O)[C@H](CC(N)=O)NC(=O)[C@H](CC(N)=O)NC(=O)[C@H](CCCN)N=C(N(C)C)N(C)C)C(C)C)C(=O)N1CCC[C@H]1C(=O)N[C@@H](CCCNC(=N)N)C(=O)N1CCC[C@H]1C(=O)N[C@@H](CCCNC(=N)N)C(=O)N1CCC[C@H]1C(=O)N1CCC[C@H]1C(=O)N[C@@H](Cc1c[nH]cn1)C(=O)N1CCC[C@H]1C(=O)N[C@@H](CCCNC(=N)N)C(=O)N[C@@H](CC(C)C)C(=O)O` ({Orn(α-tetramethylguanidino)}-NNRPV[Phe(4-F)]IPRPRPPHPRL-OH) was tested, and the Ratio (Escherichia coli [1]) was 1 and the MIC (Escherichia coli [2]) was 0.35 µM (≈ 0.803 µg/mL).
In the case of `CC[C@H](C)[C@H](NC(=O)[C@H](Cc1ccc(O)cc1)NC(=O)[C@@H](NC(=O)[C@@H]1CCCN1C(=O)[C@H](CCCNC(=N)N)NC(=O)[C@H](CC(N)=O)NC(=O)[C@H](CC(N)=O)NC(=O)[C@H](CCCN)N=C(N(C)C)N(C)C)C(C)C)C(=O)N1CCC[C@H]1C(=O)N[C@@H](CCCNC(=N)N)C(=O)N1CCC[C@H]1C(=O)N[C@@H](CCCNC(=N)N)C(=O)N1CCC[C@H]1C(=O)N1CCC[C@H]1C(=O)N[C@@H](Cc1c[nH]cn1)C(=O)N1CCC[C@H]1C(=O)N[C@@H](CCCNC(=N)N)C(=O)NCCC(C)C` ({Orn(α-tetramethylguanidino)}-NNRPVYIPRPRPPHPR-NHIsopentyl), the Ratio (Escherichia coli [1]) is reported as >800 and the MIC (Escherichia coli [2]) is reported as > 40 µM.
